Source: paper PMC4503980 (Scientific Reports, 2015)

Experiments:
[1] = target: T1, nNOS-PDZ/PSD-95-PDZ2 interaction (Mus musculus, UniProt Q9Z0J4); assay: ITC of nNOS-PDZ/PSD-95-PDZ2 interaction in the presence of compound; format: binding; conditions: 1 mM IC87201 present; significant interference, reduced reliability
T1 construct: nNOS-PDZ (residues 12–134, Uniprot Q9JJ30); PSD-95-PDZ2 (157–249, human); made in house
Procedure: Unlike the FP experiments above, which rely on inhibition of interaction partners, the ITC method is a direct measure of binding, regardless of where it takes place on the protein.
Figure 5 ITC curves. Plots showing titrations into PDZ domains fitted to a one-site model.
All ITC experiments were carried out at 25 °C on an iTC200 Microcalorimeter (GE Healthcare) with a 200 μL cell capacity and 40 μL syringe volume. The buffer used for all solutions was 20 mM phosphate buffer at pH 6.3; each experiment consisted of an initial injection of 0.5 μL, followed by fifteen 2.39 μL injections before a final injection of 1.89 μL. […] In both cases no heat exchange was detected, confirming that there was appropriate match of buffer conditions with no indication of dilution effects. […] For the nNOS-PDZ/PSD-95-PDZ2 interaction, 100 μM PDZ2 in the cell was titrated with 750 μM nNOS-PDZ. […] All data was analysed using the Origin®7 software programme.

nNOS [2] = system: nNOS; set-up: method as in PMID 21102461; conditions: cited from earlier work
nNOS [3] = system: nNOS; set-up: method as in PMID 21102461; conditions: cited from earlier work; remark: listed apart in the source

T1 sequence (Q9Z0J4 12-134): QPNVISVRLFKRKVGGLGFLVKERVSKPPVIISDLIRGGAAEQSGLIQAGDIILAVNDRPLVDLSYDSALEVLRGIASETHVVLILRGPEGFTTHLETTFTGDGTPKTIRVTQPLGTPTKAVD

Compound | effect on affinity between nNOS-PDZ and PSD-95-PDZ2 (ITC) [1] | effect on nNOS expression (nNOS [2]) | effect on nNOS catalytic activity (nNOS [3])
Oc1c(Cl)cc(Cl)cc1CNc1ccc2[nH]nnc2c1 [IC87201, 2-((1H-Benzo[d][1–3]triazol-5-ylamino)methyl)-4-6-dichlorophenol] | appeared to be affected | – | –
O=C(O)c1ccc(NCc2cc(Cl)cc(Cl)c2O)cc1O [ZL006, 4-((3,5-Dichloro-2-hydroxybenzyl)amino)-2-hydroxybenzoic acid] | – | did not affect | did not affect
